# From ChEMBL document CHEMBL4340509, “Synthesis and evaluation of novel GSK-3β inhibitors as multifunctional agents against Alzheimer's disease” (Eur J Med Chem, 2019)
# The source made the active and inactive calls. The rule behind the calls is not given here.
# How the values were obtained:
# [1] = Metal chelating activity assessed as inhibition of Cu(II)/ascorbate-induced ROS production by measuring fluorescence intensity at 100 uM measured at 20 secs interval for 1000 secs by fluorescence assay (reference value: 10 to 52)
# [2] = Antioxidant activity assessed as ABTS radical scavenging activity incubated for 6 mins; assay type: functional
# [3] = system: SH-SY5Y; experiment: Neuroprotective activity against H2O2-induced oxidative damage in human SH-SY5Y cells assessed as cell viability at 10 uM measured after 24 hrs by MTT assay relative to control; assay type: functional; details: read-out: Activity
# [4] = Metal chelating activity assessed as compound-Al3+ complex formation by measuring blue shift in maximum absorption at 20 uM in the presence of AlCl3 after 30 mins by UV-visible spectrophotometric analysis (reference value: 248 to 407 nanometer)
# [5] = system: PC-12; experiment: Neuroprotective activity against H2O2-induced oxidative damage in rat PC12 cells assessed as cell viability at 10 uM measured after 24 hrs by MTT assay relative to control; assay type: functional; details: PC-12, 24 h, read-out: Activity
# [6] = Metal chelating activity assessed as K+-compound complex formation at 20 uM in the presence of KCl after 30 mins by UV-vis spectrophotometric analysis
# [7] = molecular target: T1, Glycogen synthase kinase-3 beta (Homo sapiens, UniProt P49841); experiment: Inhibition of GSK-3beta (unknown origin) using FAM-labeled peptide as substrate preincubated for 10 mins followed by substrate addition by caliper assay
# Target sequence in this assay (P49841 whole entry): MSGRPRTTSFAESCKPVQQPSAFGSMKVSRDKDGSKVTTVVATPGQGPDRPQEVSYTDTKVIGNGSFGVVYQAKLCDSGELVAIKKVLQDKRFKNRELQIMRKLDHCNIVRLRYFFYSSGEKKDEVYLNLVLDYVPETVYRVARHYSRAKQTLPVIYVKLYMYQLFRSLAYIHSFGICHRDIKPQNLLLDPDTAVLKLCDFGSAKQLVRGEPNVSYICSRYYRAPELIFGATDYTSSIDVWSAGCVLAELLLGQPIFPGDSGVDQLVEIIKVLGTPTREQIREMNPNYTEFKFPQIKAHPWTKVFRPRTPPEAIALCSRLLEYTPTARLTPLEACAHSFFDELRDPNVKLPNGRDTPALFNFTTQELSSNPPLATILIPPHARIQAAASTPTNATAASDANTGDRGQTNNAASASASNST
# [8] = system: PC-12; experiment: Cytotoxicity against rat PC12 cells measured after 24 hrs by MTT assay; assay type: cell-based; details: PC-12, 24 h
# [9] = system: SH-SY5Y; experiment: Cytotoxicity against human SH-SY5Y cells at 2 uM in the presence of CuCl2 measured after 24 hrs by MTT assay; assay type: cell-based
# [10] = Metal chelating activity assessed as compound-Cu2+ complex formation by measuring blue shift in maximum absorption at 20 uM in presence of CuCl2 after 30 mins by UV-visible spectrophotometric analysis (reference value: 248 nanometer)
# [11] = Potency index, ratio of test compound effect to clioquinol effect for disaggregation of Cu2+ induced human HFIP-pretreated amyloid beta (1 to 42) preformed fibrils
# [12] = system: SH-SY5Y; experiment: Cytotoxicity against human SH-SY5Y cells measured after 24 hrs by MTT assay; assay type: cell-based
# [13] = system: SH-SY5Y; experiment: Neuroprotective activity against H2O2-induced oxidative damage in human SH-SY5Y cells assessed as increase in cell viability measured after 24 hrs by MTT assay; assay type: functional, cell-based
# [14] = system: SH-SY5Y; experiment: Neuroprotective activity against Cu2+-mediated amyloid beta (1 to 42) (unknown origin)-induced cytotoxicity in human SH-SY5Y cells assessed as cell viability at 2 uM measured after 24 hrs by MTT assay (reference value: 71%); assay type: functional; details: read-out: Activity
# [15] = molecular target: Amyloid-beta precursor protein (Homo sapiens) (UniProt P05067); experiment: Inhibition of human HFIP-pretreated amyloid beta (1 to 42) self aggregation at 40 uM after 24 hrs by ThT-based fluorometric method relative to control
# Amyloid-beta precursor protein (Homo sapiens), sequence (P05067 whole entry): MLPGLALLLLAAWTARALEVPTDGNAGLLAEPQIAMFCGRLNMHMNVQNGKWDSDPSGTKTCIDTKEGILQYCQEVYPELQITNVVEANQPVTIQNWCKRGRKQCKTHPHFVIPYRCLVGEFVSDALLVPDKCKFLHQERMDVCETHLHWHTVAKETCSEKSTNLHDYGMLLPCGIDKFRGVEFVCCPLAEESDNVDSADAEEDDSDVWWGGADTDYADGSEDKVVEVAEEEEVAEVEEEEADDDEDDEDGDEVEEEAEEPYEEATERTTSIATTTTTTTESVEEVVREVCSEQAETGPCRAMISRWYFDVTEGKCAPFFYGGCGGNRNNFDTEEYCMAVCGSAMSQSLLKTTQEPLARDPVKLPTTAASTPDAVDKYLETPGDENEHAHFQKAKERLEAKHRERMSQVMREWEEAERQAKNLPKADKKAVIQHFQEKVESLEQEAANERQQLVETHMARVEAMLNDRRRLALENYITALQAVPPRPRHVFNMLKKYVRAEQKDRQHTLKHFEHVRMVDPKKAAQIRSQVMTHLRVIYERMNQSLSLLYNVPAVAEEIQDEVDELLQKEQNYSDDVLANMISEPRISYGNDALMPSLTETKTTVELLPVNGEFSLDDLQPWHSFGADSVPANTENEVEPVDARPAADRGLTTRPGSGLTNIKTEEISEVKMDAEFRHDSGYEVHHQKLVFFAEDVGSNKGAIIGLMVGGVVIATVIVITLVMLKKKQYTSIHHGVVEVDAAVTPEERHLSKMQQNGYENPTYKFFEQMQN
# [16] = Metal chelating activity assessed as compound-Fe2+ complex formation at 20 uM in the presence of FeSO4 after 30 mins by UV-visible spectrophotometric analysis
# [17] = Metal chelating activity assessed as compound-Ca2+ complex formation at 20 uM in the presence of CaCl2 after 30 mins by UV-visible spectrophotometric analysis
# [18] = system: SH-SY5Y; experiment: Neuroprotective activity against amyloid beta (1 to 42) (unknown origin)-induced cytotoxicity in SH-SY5Y cells assessed as cell viability at 2 uM measured after 24 hrs by MTT assay (reference value: 78%); assay type: functional; details: Homo sapiens
# [19] = Inhibition of Cu2+-induced HFIP pretreated human amyloid beta (1 to 42) aggregation at 40 uM measured after 24 hrs by ThT-based fluorescence assay relative to control
# [20] = Metal chelating activity assessed as compound-Mg2+ complex formation at 20 uM in the presence of MgCl2 after 30 mins by UV-visible spectrophotometric analysis
# [21] = Metal chelating activity assessed as compound-Zn2+ complex formation at 20 uM in presence of ZnCl2 after 30 mins by UV-visible spectrophotometric analysis
# [22] = Metal chelating activity assessed as Na+-compound complex formation at 20 uM in the presence of NaCl after 30 mins by UV-vis spectrophotometric analysis
# [23] = molecular target: T1, Glycogen synthase kinase-3 beta; experiment: Inhibition of GSK3bbeta in human SH-SY5Y cells assessed as reduction in human amyloid beta (25 to 35) peptide-induced tau hyperphosphorylation at Ser396 residue at 25 uM preincubated for 1 hr followed by amyloid beta-stimulation and measured after 6 hrs by Western blot analysis relative to control; assay type: cell-based
# Target sequence in this assay (P49841 whole entry, looked up): as the sequence (P49841 whole entry) above
# [24] = molecular target: Amyloid-beta precursor protein (Homo sapiens) (UniProt P05067); experiment: Disaggregation of HFIP-pretreated human amyloid beta (1 to 42) preformed fibrils at 40 uM after 24 hrs by ThT-based fluorometric method relative to control
# [25] = Potency index, ratio of trolox IC50 to test compound IC50 for ABTS radical scavenging activity; assay type: functional
# [26] = molecular target: T1, Glycogen synthase kinase-3 beta; experiment: Inhibition of GSK3bbeta in human SH-SY5Y cells assessed as reduction in human amyloid beta (25 to 35) peptide-induced tau hyperphosphorylation at Ser396 residue preincubated for 1 hr followed by amyloid beta-stimulation and measured after 6 hrs by Western blot analysis; assay type: cell-based
# Target sequence in this assay (P49841 whole entry, looked up): as the sequence (P49841 whole entry) above
# [27] = Disaggregation of Cu2+ induced human HFIP-pretreated amyloid beta (1 to 42) preformed fibrils at 40 uM measured after 24 hrs by ThT-based fluorescence assay relative to control
structure (smiles),measurement,setting,value
Nc1ncc(-c2ccccc2)cc1/N=C/c1ccnc(NC(=O)C2CC2)c1,Flu intensity,[1],53 to 68
same,IC50,[2],7.3 µM
same,viability at 10 µM,[3],92.7%
same,Activity,[4],242 to 339 nm
same,viability at 10 µM,[5],71.8%
same,Activity,[6],inactive
same,IC50,[7],0.049 µM
same,IC50,[8],83.2 µM
same,Activity,[9],Non-Toxic
same,Activity,[10],244 nm
same,Ratio,[11],2
same,IC50,[12],158 µM
same,Activity,[13],Dose-dependent effect
same,viability at 2 µM,[14],93%
same,inhibition,[15],inactive
same,Activity,[16],inactive
same,Activity,[17],inactive
same,Activity,[18],inactive
same,inhibition,[19],63%
same,Activity,[20],inactive
same,Activity,[21],inactive
same,Activity,[22],inactive
same,inhibition,[23],< 50%
same,Activity,[24],inactive
same,Ratio IC50,[25],2 to 4
same,inhibition,[26],Dose-dependent effect
same,Activity,[27],66.1%
